What all share (format): cell-based, human
One assay concerns CD4+ T cells. The experiment in a line: CD4+/CD8+ analysis of 20-mer peptides (intracellular IFN-γ staining or depletion ELISPOT). As to the method:
(§1) To determine whether a particular 20-mer peptide contained either a CD4^+- or CD8^+-restricted epitope, or both, CD4^+/CD8^+ cell depletion ELISPOT assays were performed on PBMC from healthy virus carriers. For any one experiment, three populations of cells were used: a) CD8^+-depleted PBMC, b) CD4^+-depleted PBMC, and c) non-depleted PBMC. These populations of cells were tested concurrently with the same peptides in a conventional ELISPOT assay as described herein above. DYNABEADS M-450 (Dynal, Oslo, Norway) that bound specifically to CD4^+- or CD8^+ cells were used to perform the depletion essentially according to manufacturers instructions. Beads were washed twice in cold PBS supplemented with 2% FCS using magnetic isolation. The requisite number of cells was resuspended in cold PBS supplemented with 2% FCS, added to the beads and then incubated at 4° C., in the dark, for 30 mins (CD8^+ beads) or 60 mins (CD4^+ beads). Populations were depleted of CD4^+ or CD8^+ cells using magnetic separation. After depletion, the non-attached cells were removed and washed once in growth medium, counted and used in conventional ELISPOT assay. Depleted cells were used at 1.7×10^5 cells per well and the non-depleted population was used at the standard 2.5×10^5 cells per well. After the depletion step, each respective cell population was assessed for the purity of CD4^+ and CD8^+ T cells by three-colour flow cytometry. Samples of depleted cell populations were stained with anti-CD3 antibody directly conjugated to fluorescein isothiocyanate (FITC), anti-CD4 antibody conjugated with phycoerythrin (PE) fluorochrome, and anti-CD8 antibody conjugated with Tricolor fluorochrome (described below). The percent of CD3^+/CD4^+ cells present within the CD8^+-depleted population and the percent of CD3^+/CD8^+ cells present within the CD4^+-depleted populations were assessed on FACSCalibur cytometer (Becton Dickinson). The purity of each population was greater than 90% and the results from the ELISPOT assays are expressed as the percentage of CD4+ or CD8^+ cells within the depleted populations that responded toward each peptide by producing IFN-γ.
(§2) PBMCs were incubated at 37° C. in RPMI+10% FCS with and without 10 μg/ml peptides for 6 hours. Golgiplug™ (Pharmingen, San Diego, Calif., USA) was added to the samples according to manufacturer's instructions during the second hour of incubation and cells activated with 25 ng/ml phorbol 12-myristidate 13-acetate (PMA; Sigma-Aldrich Co, St. Louis Mo.) and 1 μg/ml iomomycin (Sigma) acted as a positive control. Following the incubation, 1×10^6 cells/sample were washed and resuspended in staining buffer consisting of PBS with GolgiPlug™, 3% FCS and sodium azide. Cells were then stained with FITC conjugated anti-CD3-FITC (UCHT1, Immunotech, Marseille, France), and either Tricolor (TRI) conjugated anti-CD4 (S3.5, Caltag, Burlingame, Calif.) or anti-CD8 (3B5, Caltag) for 30 minutes, 4° C. in the dark. The cells were fixed for 20 min at 4° C. with Cytofix/Cytoperm™ (BD Biosciences) and resuspended in Perm/Wash™ permeabilization buffer (BD Biosciences) according to manufacturers protocol. Fixed cells were stained with phycoerythrin (PE) conjugated anti-human IFN-γ (B27, Pharmingen) for 30 min at 4° C. in the dark. As a negative control, cells were stained with appropriate isotype matched control antibodies. Cells were washed twice in permeabilization buffer and resuspended in staining buffer before analysis by three-colour flow cytometry on a FACSCalibur cytometer (BD Biosciences). All data analysis was carried out using FlowJo software (Tree Star, Inc. San Carlos, CA).
(§3) When using 20-mer peptides to map epitopes by ELISPOT, it is possible that some responses may be MHC class-II restricted, and not necessarily restricted through HLA class I alleles. It was evident throughout this study that some epitopes identified using ELISPOT could not be confirmed using cytotoxicity analysis. […]

Another assay relates to CD8+ T cells. The description is as above. Here is the method:
as §1, §2, §3

In assay [1] the test system is PBMC from healthy HCMV seropositive donors. The assay can be described thus: IFN-γ ELISPOT assay. The settings on record: peptide 10 μg/ml. The essentials:
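PBMC from healthy HCMV-seropositive donors (2.5×10^5 cells/well) were stimulated 18 h at 37° C with individual synthetic HCMV peptides (10 μg/ml) on anti-IFN-γ-coated nitrocellulose. IFN-γ spots were developed with biotinylated antibody and streptavidin-alkaline phosphatase and counted automatically. Counts were averaged over 3 wells, and no-peptide wells were subtracted.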

In assay [2] the test system is peptide-sensitized autologous PHA blasts or LCLs. The arrangement: key to CTL response: Y: Yes; ND: Not detected. The settings on record: overlapping 20mer peptides, Table 4.

Regarding QQNQWKEPDVYYTSAFVFPT, in the assay with CD4+ T cells (donor eight), the “Responding cells (% CD4)” value amounted to 0%. In addition, in the assay with CD8+ T cells (donor eight), the “Responding cells (% CD8)” value is on record as 0.03%. In addition, the “ELISPOT Responses (SFC/10^6 PBMC)” value in assay [1] (donor eight) was “JW(600) SFC/10^6 PBMC”. Further, in assay [2], the CTL response entry is on record as “Y”.
QYDPVAALFFFDIDLLLQRG: the “Responding cells (% CD4)” value with CD4+ T cells (donor seven) is recorded as 0.22%. Also, the “Responding cells (% CD8)” value in the assay with CD8+ T cells (donor seven) amounted to 0.03%. For the same sequence, the “ELISPOT Responses (SFC/10^6 PBMC)” value in assay [1] (donor seven) was “SB(97) SFC/10^6 PBMC”. In addition, the CTL response entry in assay [2] is “Y”.
Consider RQTEKHELLVLVKKAQLNRH, for which the “Responding cells (% CD4)” value in the assay with CD4+ T cells (donor fourteen) is reported as 1.52%. The “Responding cells (% CD8)” value in the assay on CD8+ T cells (donor fourteen) stood at 0.57%. Besides, the “ELISPOT Responses (SFC/10^6 PBMC)” value in assay [1] (donor fourteen) is reported as “RK(313) SFC/10^6 PBMC”. Also, in assay [2], the CTL response result is on record as “Y”.
The like results for “RSYAYIYTTYLLGSNTEYVA (human cytomegalovirus gB CTL epitope peptide)” were, in that order, 0.39%, 0.58%, “RK(170) SFC/10^6 PBMC” and “Y”.
For SICPSQEPMSIYVYALPLKM, the “Responding cells (% CD4)” value with CD4+ T cells (donor eight) amounted to 1.18%. Moreover, the “Responding cells (% CD8)” value with CD8+ T cells (donor eight) was found to be 1.36%. Further, the “ELISPOT Responses (SFC/10^6 PBMC)” value in assay [1] (donor eight) turned out to be 3178 SFC/10^6 PBMC. Further, in assay [2], the CTL response result is listed as “Y”.
In the case of SQYRIQGKLEYRHTWDRHDE, in the assay on CD4+ T cells (donor delta), the “Responding cells (% CD4)” value was found to be 0%. Moreover, the “Responding cells (% CD8)” value in the assay with CD8+ T cells (donor delta) is listed as 2.0%. The “ELISPOT Responses (SFC/10^6 PBMC)” value in assay [1] (donor delta) is recorded as “SE(1203) SFC/10^6 PBMC”. In addition, in assay [2], the CTL response result was “Y”.
With “TAAKAYAVGQFEQPTETPPE (human cytomegalovirus IE2 CTL epitope peptide)”, the “Responding cells (% CD4)” value in the assay on CD4+ T cells (donor fourteen) is listed as 0.2%. In addition, the “Responding cells (% CD8)” value in the assay with CD8+ T cells (donor fourteen) was determined as 0.35%. Besides, the “ELISPOT Responses (SFC/10^6 PBMC)” value in assay [1] (donor fourteen) was determined as 859 SFC/10^6 PBMC; in assay [1] (donor seven), 326 SFC/10^6 PBMC. In assay [2], the CTL response entry is given as “Y”.
As to “TYEKYGNVSVFETSGGLVVF (human cytomegalovirus gB CTL epitope peptide)”, in the assay on CD4+ T cells (donor delta), the “Responding cells (% CD4)” value is on record as 0%. The “Responding cells (% CD8)” value in the assay on CD8+ T cells (donor delta) was determined as 0.097%. Also, in assay [1] (donor delta), the “ELISPOT Responses (SFC/10^6 PBMC)” value was “SE(75) SFC/10^6 PBMC”. Also, the CTL response result in assay [2] is listed as “Y”.
Consider VFTWPPWQAGILARNLVPMV, for which the “Responding cells (% CD4)” value in the assay with CD4+ T cells (donor delta) is 0%. Besides, the “Responding cells (% CD8)” value with CD8+ T cells (donor delta) came out at 0.45%. Further, the results for the “ELISPOT Responses (SFC/10^6 PBMC)” value in assay [1] (donor delta) and in assay [1] (donor four) were 533 SFC/10^6 PBMC and 420 SFC/10^6 PBMC, respectively. Also, the CTL response entry in assay [2] is reported as “Y”.
As to “WPRERAWALKNPHLAYNPFR (human cytomegalovirus pp150 CTL epitope peptide)”, in the assay with CD4+ T cells (donor twelve), the “Responding cells (% CD4)” value was 0.03%. Further, in the assay with CD8+ T cells (donor twelve), the “Responding cells (% CD8)” value is listed as 0.27%. In addition, the “ELISPOT Responses (SFC/10^6 PBMC)” value in assay [1] (donor twelve) is “RE(83) SFC/10^6 PBMC”. The CTL response result in assay [2] is recorded as “Y”.
For the sequence YPSAAERKHRHLPVADAVIH, the “Responding cells (% CD4)” value in the assay with CD4+ T cells (donor delta) is 0%. Moreover, in the assay with CD8+ T cells (donor delta), the “Responding cells (% CD8)” value is listed as 0.313%. Also, the “ELISPOT Responses (SFC/10^6 PBMC)” value in assay [1] (donor delta) is on record as “SE(350) SFC/10^6 PBMC”. Moreover, in assay [2], the CTL response result was “Y”.
For YYTSAFVFPTKDVALRHVVC, the “Responding cells (% CD4)” value with CD4+ T cells (donor two) came to 0.05%. Also, the “Responding cells (% CD8)” value in the assay with CD8+ T cells (donor two) amounted to 0.04%. Also, the results for the “ELISPOT Responses (SFC/10^6 PBMC)” value in assay [1] (donor eight), in assay [1] (donor seven) and in assay [1] (donor two) were “JW(858) SFC/10^6 PBMC”, 775 SFC/10^6 PBMC and 358 SFC/10^6 PBMC, respectively. Also, the CTL response result in assay [2] is given as “Y”.
